Values belong to the compound of their own block, whether it stands above or below them. Starred links: 1 amine or outer side, 2 acyl side, 3 side chain; linkers in the order of their positions; H or OH if unused. Non-standard residues stand in square brackets, D forms with d. Residues, ends and D or L forms follow the SMILES beside them. *: point of attachment. AMC = Cc1cc(=O)oc2cc(N*)ccc12; Tos = Cc1ccc(S(=O)(=O)*)cc1; Cbz = O=C(OCc1ccccc1)*; Boc = CC(C)(C)OC(=O)*; CO = O=C([*:1])[*:2]
Columns and labels:
hK2 [1] = biological target: T1, hK2 (Homo sapiens, UniProt P20151); assay: Kinetic constants of AMC substrate hydrolysis by hK2; format: biochemical; parameters: key to Kcat: The entry “NR” means that no reaction was detected; conditions: for Kcat: 50 mM Tris pH 7.5, 0.1 M NaCl, 0.2% BSA, 37° C., Lineweaver-Burk, NR = no reaction detected; for Activity (%): hydrolytic activity of hK2 in relation to H-Pro-Phe-Arg-AMC: 100 μM substrate
T1 construct: made in house
Description: The measurements were done with Fluoroscan II (Labsystems, Helsinki, Finland) using a 355 nm excitation filter and a 460 nm emission filter. The fluorescence of 7-amino-4-methylcoumarin (AMC) (Sigma, St. Louis, Mo., USA) was determined to be 700 FIU/nmol and this value was used in the calculations of the rate of product formation. Unless otherwise indicated all final analyses were performed in 200 μl of the buffer 50 mM Tris pH 7.5, 0.1 M NaCl, and 0.2% BSA at 37° C. using 1.6 pmol hK2. BSA was added to the reaction mixture in order to minimize adsorption of the enzyme to the walls of the microtiter wells. The amount of hK2 was quantified by a commercial PSA immunoassay (Prostatus, Wallac, Turku, Finland) with the Mabs H1 17 and H50 which recognize PSA and hK2 equally well (Lovgren et al., Biochem. Biophys. Res. Co., 213, 888-895 (1995)). Under the conditions described, 1.6 pmol of the hK2 preparation cleaved 50 pmol/min of the 100 μM substrate Pro-Phe-Arg-AMC (SEQ ID NO: 55). During the 20 minute measurement time the consumption of the substrates is <7% of their total amount and was not considered to affect the reaction rate. Initial analysis of the substrates were performed with 3.2 pmol hK2 at a substrate concentration of 250 μM. Km value for the substrates cleaved by hK2 at these conditions were determined using at least four substrate concentrations ranging from 0.2×Km to 5×Km. The Km and kcat values were calculated from Lineweaver-Burk plots.
Substrates ending in either arginine or lysine were tested. […] However, no hydrolysis of Arg-Gln-Arg-Arg-AMC (SEQ ID NO: 63) was detected. […] As with the semenogelins, hK2 also here cleaves substrates with Arg at position P1 and preferentially a large residue or another Arg at position P2. None of the substrates with lysine in the C-terminal position were cleaved.
The activity listed in Table 1 is hydrolytic activity of hK2 with 100 μM substrate in relation to the hydrolytic activity of hK2 with 100 μM of the tissue kallikrein substrate H-Pro-Phe-Arg-AMC (SEQ ID NO: 55). The entry “NR” means that no reaction was detected.

hK2 [2] = biological target: T1, hK2; assay: Inhibition of hK2 by protease inhibitors (substrate H-Pro-Phe-Arg-AMC); format: biochemical; conditions: for inhibition at 100 µM: inhibitor 100 μM (highest recommended working concentration), 90 μM peptide substrate; for remaining activity at 100 µM: inhibitor 100 μM
Description: Activity of hK2 (1.6 pmol) was monitored using the substrate H-Pro-Phe-Arg-AMC (SEQ ID NO: 55) (90 μM). Inhibitors, at commonly used concentrations, and hK2 (8.3 nM) were mixed and proteolysis of 90 μM H-Pro-Phe-Arg-AMC (SEQ ID NO: 55) was followed up to 20 minutes, starting directly or 10 minutes after mixing the enzyme with various inhibitors. Inhibition was evaluated by comparison with […] controls.
The proteolytic activity is expressed in percentage of inhibitor-free control after 10 minutes of incubation.
Therefore, PPACK can be used to obtain fast irreversible inhibition of hK2.

[3] = Serum hydrolysis of hK2 substrates; format: in vitro ADME; conditions: 50% fresh human serum in 50 mM Tris, 0.1 M NaCl, pH 7.8
Description: (§1) Hydrolyses of particular hK2 substrates were carried out at a hK2 concentrations of 1 μg/ml in 50 mM Tris buffer, with 0.1 M NaCl, at pH 7.8. Serum hydrolysis measurements were carried out in 50% fresh human serum in 50 mM Tris buffer, with 0.1 M NaCl, at pH 7.8. The single letter amino acid code was used to designate the peptide sequences used for Table 4. The units FU are arbitrary fluorescence units. The entries “U.D.” were for measurements of less than 0.01 FU/hour.

hK2 [4] = biological target: T1, hK2; assay: Hydrolysis of hK2 substrates by hK2; format: biochemical; conditions: hK2 1 μg/ml, 50 mM Tris, 0.1 M NaCl, pH 7.8
Description: as §1

[5] = inhibitor 5 μM, 10 minutes of incubation, 8.3 nM hK2, 90 μM substrate
[6] = 10 minutes of incubation, 8.3 nM hK2, 90 μM substrate, read-out: Activity (%) of hK2, percentage of inhibitor-free control

T1 sequence (P20151 25-261): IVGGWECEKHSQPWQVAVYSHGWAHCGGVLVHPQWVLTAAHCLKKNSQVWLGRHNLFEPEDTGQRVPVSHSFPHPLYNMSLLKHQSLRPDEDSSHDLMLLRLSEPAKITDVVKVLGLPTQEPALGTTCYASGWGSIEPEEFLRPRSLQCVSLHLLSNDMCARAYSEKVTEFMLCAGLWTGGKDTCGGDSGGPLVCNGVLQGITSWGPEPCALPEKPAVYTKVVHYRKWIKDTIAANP

Compound: Cc1cc(=O)oc2cc(NC(=O)[C@H](CCCCN)NC(=O)[C@H](CC(C)C)NC(=O)[C@H](N)C(C)C)ccc12 [Val Leu Lys-AMC, H-D-Val-Leu-Lys-AMC] (H-[dV]-Leu-Lys-{AMC})
Kcat (hK2 [1]): NR

Kcat (hK2 [1]): NR
Compound: Cc1cc(=O)oc2cc(NC(=O)[C@H](CCCNC(=N)N)NC(=O)CNC(=O)[C@H](CCC(N)=O)NC(=O)OC(C)(C)C)ccc12 [Gln Gly Arg-AMC, Boc-Gln-Gly-Arg-AMC] (Boc-Gln-Gly-Arg-{AMC})

hydrolysis by hK2 (in words) (hK2 [1]): with lower efficiency
Activity (%): hydrolytic activity of hK2 in relation to H-Pro-Phe-Arg-AMC (hK2 [1]): 7%
Compound: Cc1cc(=O)oc2cc(NC(=O)[C@H](CCCNC(=N)N)NC(=O)[C@H](CC(C)C)NC(=O)[C@H](CC(C)C)NC(=O)OCc3ccccc3)ccc12 [Leu Leu Arg-AMC, Z-Leu-Leu-Arg-AMC]

Compound: NC(N)=NCCC[C@H](NC(=O)[C@@H]1CCCN1C(=O)[C@H](N)Cc1ccccc1)C(=O)CCl [PPACK]
inhibition of hK2 (in words) (hK2 [2]; 5 μM concentration, irreversible): inhibited hK2 rapidly
Activity (%) of hK2, percentage of inhibitor-free control (hK2 [2]; [5]): 0%

Compound: PSTI: protease inhibitor present in the prostate (DSLGREAKCYNELNGCTKIYDPVCGTDGNTYPNECVLCFENRKRQTSILIQKSGPC)
inhibition of hK2 (in words) (hK2 [2]; 8 nM hK2, 90 μM substrate): inhibited hK2 weakly
Activity (%) of hK2, percentage of inhibitor-free control (hK2 [2]; inhibitor 0.08 μM, 10 minutes of incubation, 8.3 nM hK2, 90 μM substrate): 100%
Activity (%) of hK2, percentage of inhibitor-free control (hK2 [2]; inhibitor 4 μM, 10 minutes of incubation, 8.3 nM hK2, 90 μM substrate): 89%

Compound: Cc1cc(=O)oc2cc(NC(=O)[C@H](CCCNC(=N)N)NC(=O)[C@H](CCCNC(=N)N)NC(=O)[C@H](CCC(N)=O)NC(=O)[C@@H](N)CCCNC(=N)N)ccc12 [Arg Gln Arg Arg-AMC, H-Arg-Gln-Arg-Arg-AMC] (H-RQRR-{AMC})
hydrolysis by hK2 (in words) (hK2 [1]): no hydrolysis
Kcat (hK2 [1]): NR

hydrolysis by hK2 (in words) (hK2 [1]): best substrate
rate of substrate cleavage by hK2 preparation (hK2 [1]; 1.6 pmol hK2, 100 μM substrate, pH 7.5, 37° C.): 50 pmol/min
Activity (%): hydrolytic activity of hK2 in relation to H-Pro-Phe-Arg-AMC (hK2 [1]): 100%
Compound: Cc1cc(=O)oc2cc(NC(=O)[C@H](CCCNC(=N)N)NC(=O)[C@H](Cc3ccccc3)NC(=O)[C@@H]3CCCN3)ccc12 [Pro Phe Arg-AMC, H-Pro-Phe-Arg-AMC] (H-Pro-Phe-Arg-{AMC})

Compound: CC(=O)N[C@@H](CC(C)C)C(=O)N[C@@H](CC(C)C)C(=O)N[C@H](C=O)CCCNC(=N)N [Leupeptin, leupeptin]
inhibition of hK2 (in words) (hK2 [2]; 8 nM hK2, 90 μM substrate): only weakly inhibited
inhibition at 100 µM (hK2 [2]): ~60%
remaining activity at 100 µM (hK2 [2]; [6]): 12%

Compound: CC(C)[C@H](NC(=O)[C@H](CCCNC(=N)N)NC(=O)N[C@@H](Cc1ccccc1)C(=O)O)C(=O)N[C@H](C=O)CCCNC(=N)N [Antipain, antipain] ({Phe-CO}-Arg-Val-Arg-aldehyde)
inhibition at 100 µM (hK2 [2]): ~90%
remaining activity at 100 µM (hK2 [2]; [6]): 33%
remaining activity at 500 µM (hK2 [2]; inhibitor 500 μM, 10 minutes of incubation, 8.3 nM hK2, 90 μM substrate, read-out: Activity (%) of hK2, percentage of inhibitor-free control): 10%

Compound: Cc1cc(=O)oc2cc(NC(=O)[C@H](CCCNC(=N)N)NC(=O)[C@H](CO)NC(=O)[C@H](Cc3ccccc3)NC(=O)OC(C)(C)C)ccc12 [Phe Ser Arg-AMC, Boc-Phe-Ser-Arg-AMC] (Boc-Phe-Ser-Arg-{AMC})
Kcat (hK2 [1]): NR

Compound: Cc1cc(=O)oc2cc(NC(=O)[C@H](CCCNC(=N)N)NC(=O)[C@@H](NC(=O)[C@@H](NC(=O)OCc3ccccc3)C(C)C)C(C)C)ccc12 [Val Val Arg-AMC, Z-Val-Val-Arg-AMC] (Cbz-Val-Val-Arg-{AMC})
Kcat (hK2 [1]): NR

Kcat (hK2 [1]): NR
Compound: Cc1ccc(S(=O)(=O)NCC(=O)N2CCC[C@H]2C(=O)N[C@@H](CCCNC(=N)N)C(=O)Nc2ccc3c(C)cc(=O)oc3c2)cc1 [Gly Pro Arg-AMC, Tos-Gly-Pro-Arg-AMC] (Tos-Gly-Pro-Arg-{AMC})

hydrolysis by hK2 (in words) (hK2 [1]): with lower efficiency
Activity (%): hydrolytic activity of hK2 in relation to H-Pro-Phe-Arg-AMC (hK2 [1]): 6%
Compound: Cc1cc(=O)oc2cc(NC(=O)[C@H](CCCNC(=N)N)NC(=O)[C@@H]3CCCN3C(=O)[C@@H](NC(=O)OC(C)(C)C)C(C)C)ccc12 [Val Pro Arg-AMC, boc-Val-Pro-Arg-AMC] (Boc-Val-Pro-Arg-{AMC})

Compound: Cl.N=C(N)c1ccccc1 [Benzamidine, Benzamidine hydrochloride]
concentration required for efficient inhibition of hK2 (hK2 [2]): above 20 mM
remaining activity at 5000 µM (hK2 [2]; inhibitor 5000 μM, 10 minutes of incubation, 8.3 nM hK2, 90 μM substrate, read-out: Activity (%) of hK2, percentage of inhibitor-free control): 27%
remaining activity at 20000 µM (hK2 [2]; inhibitor 20,000 μM, 10 minutes of incubation, 8.3 nM hK2, 90 μM substrate, read-out: Activity (%) of hK2, percentage of inhibitor-free control): 8%

hydrolysis by hK2 (in words) (hK2 [1]): cleaved quite effectively
Activity (%): hydrolytic activity of hK2 in relation to H-Pro-Phe-Arg-AMC (hK2 [1]): 33%
Compound: Cc1cc(=O)oc2cc(NC(=O)[C@H](CCCNC(=N)N)NC(=O)[C@H](CCCNC(=N)N)NC(=O)[C@H](C)NC(=O)OCc3ccccc3)ccc12 [Ala Arg Arg-AMC, Z-Ala-Arg-Arg-AMC] (Cbz-Ala-Arg-Arg-{AMC})

Compound: SEQ ID NO: 71: hK2 substrate peptide, single letter sequence P7-P′1 (GSKGHRRL; listed as Homo sapiens)
Serum Hydrolysis Rate ([3]; Table 4): UD (The entries “U.D.” were for measurements of less than 0.01 FU/hour)
hK2 Hydrolysis Rate (hK2 [4]; Table 4): 2649.96 FU/hr/m

Compound: Aprotinin
inhibition of hK2 (in words) (hK2 [2]; 8 nM hK2, 90 μM substrate): not to be good hK2 inhibitor
Activity (%) of hK2, percentage of inhibitor-free control (hK2 [2]; [5]): 10%
Activity (%) of hK2, percentage of inhibitor-free control (hK2 [2]; inhibitor 30 μM, 10 minutes of incubation, 8.3 nM hK2, 90 μM substrate): 33%

Compound: SEQ ID NO: 90: hK2 substrate peptide, single letter sequence P7-P′1 (GPAHQDHL; listed as Homo sapiens)
Serum Hydrolysis Rate ([3]; Table 4): 0.00 FU/hr
hK2 Hydrolysis Rate (hK2 [4]; Table 4): 48.06 FU/hr/m

Compound: SEQ ID NO: 85: hK2 substrate peptide, single letter sequence P7-P′1 (GKDVSGHL; listed as Homo sapiens)
Serum Hydrolysis Rate ([3]; Table 4): 0.05 FU/hr
hK2 Hydrolysis Rate (hK2 [4]; Table 4): 67.55 FU/hr/m

Compound: SEQ ID NO: 106: hK2 substrate peptide, single letter sequence P6-P′1 (GGKQRRL; listed as Homo sapiens)
Serum Hydrolysis Rate ([3]; Table 5): 0.02 FU/hr
hK2 Hydrolysis Rate (hK2 [4]; Table 5): 2171.2 FU/hr/m

Compound: Cc1ccc(S(=O)(=O)NCC(=O)N2CCC[C@H]2C(=O)N[C@@H](CCCCN)C(=O)Nc2ccc3c(C)cc(=O)oc3c2)cc1 [Gly Pro Lys-AMC, Tos-Gly-Pro-Lys-AMC] (Tos-Gly-Pro-Lys-{AMC})
Kcat (hK2 [1]): NR

— US8450280B2, “Activation of peptide prodrugs by hK2” (GenbSpera, Inc., priority 1999, dated 2013)
